From ChEMBL document CHEMBL5724696, “Autophagy assay results for EUbOPEN Chemogenomics Library” (2024) come the findings set out here.

The experiment has as its system TERT-RPE1. The experiment is described as follows: Here: values are normalized to the negative (DMSO; defined as 0% autophagy induction) and positive (250nM Torin1; mTOR inhibitor; defined as maximal inducer of autophagy = 100%) control compounds and represented as % of autophagy induction. […] The impact of autophagy induction on cells is complex and depends on the affected target. As such, the magnitude of a phenotype may not be equally mirrored in the %-value of autophagy induction and vice versa. The dynamics of the induction may indicate the mode of activation: e.g. activation via phosphorylation or a signaling cascade may occur fast, while activation via transcription factors may take considerably longer. […] Of note, treatment concentrations may be sub-optimal for specific compounds, leading to false negative annotations. The experiment is classed as functional, Homo sapiens. The conditions noted are these: Culturing Media DMEM/F12 (1:1), 1 % Penicillin/Streptomycin, 10% Fetal bovin serum Add-On: No, Screening Media Control DMEM/F12 (1:1), Screening Media Samples DMEM/F12 (1:1).

Setting [1] is: Compound Concentration 1 uM, Timepoint 12 hours.
Setting [2] is: Compound Concentration 1 uM, Timepoint 24 hours.
[3] abbreviates: Compound Concentration 1 uM, Timepoint 36 hours.
Setting [4] is: Compound Concentration 1 uM, Timepoint 60 hours.

The structures appear in SMILES notation.

For the compound `Cc1nc(-c2ccc(C(F)(F)F)cc2)sc1C(=O)NCc1ccc(OC(C)(C)C(=O)O)cc1` [GW590735], the autophagy induction reads like this: under setting [1], -16.082%; under setting [2], -2.956%; under setting [3], 16.0196%; under setting [4], -2.481%.

As to `CC(C)c1ccc(CC(=O)N2CCC[C@@H](c3cccc(OC(C)(C)C(=O)O)c3)C2)cc1`, the autophagy induction by setting is: under setting [1], 2.269%; under setting [2], -2.988%; under setting [3], 2.286%; under setting [4], -0.7623%.

With `Cc1cc(SCc2sc(-c3ccc(C(F)(F)F)c(F)c3)nc2C)ccc1OCC(=O)O`, the autophagy induction reads like this: under setting [1], -0.9501%; under setting [2], -2.27%; under setting [3], 3.329%; under setting [4], -6.099%.

As to `O=S(=O)(c1ccccc1)N(CC(F)(F)F)c1ccc(C(O)(C(F)(F)F)C(F)(F)F)cc1` [T091317], the autophagy induction by setting is: under setting [1], -11.1926%; under setting [2], -0.1715%; under setting [3], 8.77%; under setting [4], -29.9579%.

On to `COC(=O)C(Cc1ccc(OCCn2c(=O)sc3cc(C(=O)c4ccccc4)ccc32)cc1)C(=O)OC`, for which the autophagy induction is, setting by setting: under setting [1], -14.8184%; under setting [2], -7.449%; under setting [3], 12.2337%; under setting [4], -20.3416%.

For `CSc1ccc(C(=O)/C=C/c2cc(C)c(OC(C)(C)C(=O)O)c(C)c2)cc1` [ELAFIBRANOR], the autophagy induction by setting is: under setting [1], -15.4717%; under setting [2], -8.668%; under setting [3], 8.143%; under setting [4], -14.713%.

In the case of `CC1(C)CCC(C)(C)c2cc(NC(=O)c3ccc(C(=O)O)cc3)ccc21` [TAMIBAROTENE], the autophagy induction runs as follows: under setting [1], -36.8107%; under setting [2], -29.3713%; under setting [3], -7.633%; under setting [4], 34.9259%.

`CC(=O)Oc1ccc2c(c1)[C@@]1(C)CCC[C@](C)(C(=O)OC(=O)[C@@]3(C)CCC[C@]4(C)c5cc(OC(C)=O)ccc5CC[C@@H]34)[C@@H]1CC2` [ACETYL PODOCARPIC ACID ANHYDRIDE]: the autophagy induction reads like this: under setting [1], -1.145%; under setting [2], -5.055%; under setting [3], -3.143%; under setting [4], -11.9263%.

Consider `COC(=O)/C=C/c1cccc(N(Cc2ccc(-c3ccc(N(C)C)cc3)cc2)C(=O)C2CCCCC2)c1` [FEXARAMINE], for which the autophagy induction by setting is: under setting [1], -11.8732%; under setting [2], 0.4959%; under setting [3], 16.8927%; under setting [4], -24.9579%.

Consider `CC(C)OC(=O)C1=CN(C(=O)c2ccc(F)c(F)c2)CC(C)(C)c2c1[nH]c1ccccc21` [TUROFEXORATE ISOPROPYL], for which the autophagy induction is, setting by setting: under setting [1], -4.447%; under setting [2], -6.097%; under setting [3], -6.537%; under setting [4], 2.1006%.

As to `CCOP(=O)(OCC)C(=Cc1cc(C(C)(C)C)c(O)c(C(C)(C)C)c1)P(=O)(OCC)OCC`, the autophagy induction under setting [1] is -14.535%, the autophagy induction under setting [2] is given as -0.01812%, the autophagy induction under setting [3] came to 17.6383% and the autophagy induction under setting [4] is reported as -21.9097%.

`C[C@H](CCOc1cccc(CC(=O)O)c1)N(Cc1cccc(C(F)(F)F)c1Cl)CC(c1ccccc1)c1ccccc1.Cl`: the autophagy induction is, setting by setting: under setting [1], -13.5866%; under setting [2], 1.703%; under setting [3], 15.8521%; under setting [4], -16.0779%.

`COc1cc2c(cc1CC=C(C)C)C(=O)C[C@@H](c1ccc(O)cc1)O2` [BAVACHININ A]: the autophagy induction was -6.984% under setting [1], -10.3298% under setting [2], -14.6991% under setting [3] and 1.68% under setting [4].

With `Cc1cccc(CN2CCN(C(c3ccccc3)c3ccc(Cl)cc3)CC2)c1.Cl.Cl` (stereo not given), the autophagy induction was 89.2215% under setting [1], -0.434% under setting [2], 13.2807% under setting [3] and -24.9822% under setting [4].

Take `CC(C)(Sc1ccc(CCN(CCCCC2CCCCC2)C(=O)NC2CCCCC2)cc1)C(=O)O` [GW7647]: the autophagy induction is, setting by setting: under setting [1], -14.4765%; under setting [2], -1.331%; under setting [3], 15.0253%; under setting [4], -17.5748%.

`C=C1/C(=C\C=C2/CCC[C@]3(C)[C@@H]([C@H](C)/C=C/C=C/C(O)(CC)CC)CC[C@@H]23)C[C@@H](O)C[C@@H]1O` [SEOCALCITOL]: the autophagy induction by setting is: under setting [1], 1.435%; under setting [2], 3.014%; under setting [3], 6.115%; under setting [4], 9.3722%.

For the compound `CO[C@H]1/C=C/O[C@@]2(C)Oc3c(C)c(O)c4c(O)c(c(/C=N/N5CCN(C)CC5)c(O)c4c3C2=O)NC(=O)/C(C)=C\C=C\[C@H](C)[C@H](O)[C@@H](C)[C@@H](O)[C@@H](C)[C@H](OC(C)=O)[C@@H]1C` [RIFAMPIN], the autophagy induction by setting is: under setting [1], -6.53%; under setting [2], -7.862%; under setting [3], -4.147%; under setting [4], 5.829%.

For the compound `CCCCCCCN(CCc1ccc(SC(C)(C)C(=O)O)cc1)C(=O)Nc1ccc(F)cc1F` [GSK-9578], the autophagy induction by setting is: under setting [1], -3.328%; under setting [2], -4.346%; under setting [3], -1.192%; under setting [4], -5.756%.

Consider `CCCCCNC(=O)N1CCC(CN(Cc2ccc(Cl)cc2)Cc2ccc([N+](=O)[O-])s2)C1` (stereo not given) [SR9011], for which the autophagy induction was -13.327% under setting [1], -1.26% under setting [2], 19.5212% under setting [3] and -21.0748% under setting [4].

Consider `Cc1oc2ccccc2c1Cc1cc(I)c(OCC(=O)O)c(I)c1`, for which the autophagy induction runs as follows: (Compound Concentration 3 uM, Timepoint 12 hours) -1.169%; (Compound Concentration 3 uM, Timepoint 24 hours) 9.702%; (Compound Concentration 3 uM, Timepoint 36 hours) 19.9109%; (Compound Concentration 3 uM, Timepoint 60 hours) -4.505%.

With `CCO[C@H](COc1ccc(C(F)(F)F)cc1)CSc1ccc(OCC(=O)[O-])c(C)c1.[Na+]`, the autophagy induction under setting [1] was determined as 0.706%, the autophagy induction under setting [2] is listed as -0.6859%, the autophagy induction under setting [3] amounted to 2.912% and the autophagy induction under setting [4] amounted to 3.397%.

Regarding `O=C(O)c1ccnc(N2CC(O)(c3ccc(OCc4c(-c5c(Cl)cccc5Cl)noc4C4CC4)cc3Cl)C2)c1` [CILOFEXOR], the autophagy induction is, setting by setting: under setting [1], 6.577%; under setting [2], 4.142%; under setting [3], 10.1768%; under setting [4], 9.429%.

For `O=c1[nH]c2ccccc2n1CCCN1CCN(C(c2ccccc2)c2ccccc2)CC1` [OXATOMIDE], the autophagy induction (Compound Concentration 10 uM, Timepoint 12 hours) was determined as 12.1676%; the autophagy induction (Compound Concentration 10 uM, Timepoint 24 hours) was determined as 23.0166%; the autophagy induction (Compound Concentration 10 uM, Timepoint 36 hours) is 23.6799%; the autophagy induction (Compound Concentration 10 uM, Timepoint 60 hours) is reported as -2.469%.

`CC(C)c1cc(Oc2c(Cl)cc(-n3nc(C#N)c(=O)[nH]c3=O)cc2Cl)n[nH]c1=O` [RESMETIROM]: the autophagy induction runs as follows: under setting [1], -11.5681%; under setting [2], 0.0003786%; under setting [3], 17.8213%; under setting [4], -19.2681%.

In the case of `Cc1cc(OCC(=O)O)cc(C)c1Cc1ccc(O)c(C(C)C)c1` [SOBETIROME], the autophagy induction under setting [1] is -4.298%, the autophagy induction under setting [2] was -6.005%, the autophagy induction under setting [3] stood at 3.899% and the autophagy induction under setting [4] amounted to 12.5403%.
